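Exposure lasted 48 hours, with cells grown in 96-well plates and compounds tested at five concentrations. Abbreviation: GI50, concentration required for 50% inhibition of growth.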 Active and inactive are the calls of the source. Rule as the data show it: active = GI50 up to about 1.1 µM and inactive = higher.
Tests used:
Experiment in all cases: inhibition of tumour cell growth, NCI panel, 48 h
COLO 205 = test system: COLO 205
DU-145 = test system: DU-145
HL-60 = test system: HL-60
HT-29 = test system: HT-29
K562 = test system: K562
MDA-MB-231 = test system: MDA-MB-231
MOLT-4 = test system: MOLT-4
Malme-3M = test system: Malme-3M
NCI-H226 = test system: NCI-H226
NCI-H460 = test system: NCI-H460
NCI-H522 = test system: NCI-H522
OVCAR-8 = test system: OVCAR-8
RPMI-8226 = test system: RPMI-8226
RXF 393 = test system: RXF 393
SF-268 = test system: SF-268
SF-539 = test system: SF-539
SK-MEL-5 = test system: SK-MEL-5
SR = test system: SR
SW-620 = test system: SW-620
UO-31 = test system: UO-31

| SMILES | GI50 (COLO 205) | GI50 (DU-145) | GI50 (HL-60) | GI50 (HT-29) | GI50 (K562) | GI50 (MDA-MB-231) | GI50 (MOLT-4) | GI50 (Malme-3M) | GI50 (NCI-H226) | GI50 (NCI-H460) | GI50 (NCI-H522) | GI50 (OVCAR-8) | GI50 (RPMI-8226) | GI50 (RXF 393) | GI50 (SF-268) | GI50 (SF-539) | GI50 (SK-MEL-5) | GI50 (SR) | GI50 (SW-620) | GI50 (UO-31) |
| --- | --- | --- | --- | --- | --- | --- | --- | --- | --- | --- | --- | --- | --- | --- | --- | --- | --- | --- | --- | --- |
| CCCCc1ccc(Nc2nc(Cl)c3c(ncn3COCCOC(C)=O)n2)cc1 | 22.3 µM (inactive) | 16.6 µM (inactive) | 21.6 µM (inactive) | 18.7 µM (inactive) | 24.4 µM (inactive) | 18.5 µM (inactive) | 20.4 µM (inactive) | 19.4 µM (inactive) | 17.4 µM (inactive) | 18.3 µM (inactive) | 17.2 µM (inactive) | 18.3 µM (inactive) | 29 µM (inactive) | 12.9 µM (inactive) | 19.2 µM (inactive) | 19 µM (inactive) | 18.7 µM (inactive) | 20.7 µM (inactive) | 23.1 µM (inactive) | 18.7 µM (inactive) |
| CCn1c(-c2cc(OC)cc(OC)c2)nc2c1C(=O)c1ccccc1C2=O | > 100 µM (inactive) | > 100 µM (inactive) | > 100 µM (inactive) | > 100 µM (inactive) | > 100 µM (inactive) | > 100 µM (inactive) | > 100 µM (inactive) | > 100 µM (inactive) | > 100 µM (inactive) | > 100 µM (inactive) | 6.46 µM (inactive) | > 100 µM (inactive) | > 100 µM (inactive) | 13.9 µM (inactive) | 65.8 µM (inactive) | > 100 µM (inactive) | > 100 µM (inactive) | > 100 µM (inactive) | > 100 µM (inactive) |  |
| COc1cc2c[n+](C)c3c4ccccc4ccc3c2cc1OC.COc1cc2cnc3c4ccccc4ccc3c2cc1OC | 2.86 µM (inactive) | 5.68 µM (inactive) | 42.7 µM (inactive) | 7.59 µM (inactive) | 9.55 µM (inactive) | 2.79 µM (inactive) | 1.46 µM (inactive) | 3.21 µM (inactive) | 13.1 µM (inactive) | 11.6 µM (inactive) | 1.22 µM (inactive) | 12.1 µM (inactive) | 8.11 µM (inactive) | 21.2 µM (inactive) | 0.592 µM (active) | 10 µM (inactive) | 14.9 µM (inactive) | 4.42 µM (inactive) | 4.34 µM (inactive) | 66.1 µM (inactive) |
| COc1cc(C=O)cc(/C=N/N=C/c2ccccc2O)c1O | 30.5 µM (inactive) | 66.4 µM (inactive) | < 0.01 µM (active) | 34.1 µM (inactive) |  | 23.7 µM (inactive) | 0.0182 µM (active) | 3.97 µM (inactive) | 16.6 µM (inactive) | 31.4 µM (inactive) | 40.5 µM (inactive) |  | 16.4 µM (inactive) | 37.3 µM (inactive) | 36.6 µM (inactive) | 4.73 µM (inactive) | 29.1 µM (inactive) | 19.8 µM (inactive) | 62.2 µM (inactive) | 24.6 µM (inactive) |
| CCOC(=O)C(C(=S)SC)c1nn2c(=O)cc(C)nc2s1 (stereo not given) | 24.6 µM (inactive) | 17.9 µM (inactive) | 18.1 µM (inactive) | 21.5 µM (inactive) | 18.2 µM (inactive) | 19.5 µM (inactive) | 19.2 µM (inactive) | 16.4 µM (inactive) | 17.9 µM (inactive) | 18.8 µM (inactive) | 21.1 µM (inactive) | 19.3 µM (inactive) | 19.6 µM (inactive) | 20.8 µM (inactive) | 17.7 µM (inactive) | 18.3 µM (inactive) | 18.7 µM (inactive) | 15.7 µM (inactive) | 20.3 µM (inactive) | 23 µM (inactive) |
| CCc1ccccc1N1CCN(C(=O)c2cc(OC)c(OC)c(OC)c2)CC1 | 0.0219 µM (active) | 0.0207 µM (active) | 0.0233 µM (active) | 0.0225 µM (active) | 0.0235 µM (active) | 0.057 µM (active) | 0.148 µM (active) | 0.0232 µM (active) | 0.103 µM (active) | 0.0307 µM (active) | 0.0134 µM (active) | 0.0914 µM (active) | 0.149 µM (active) | 0.0105 µM (active) | 0.114 µM (active) | 0.0212 µM (active) | 0.0154 µM (active) | 0.0893 µM (active) | 0.0208 µM (active) | 0.0685 µM (active) |
| O=C1/C(=C/c2ccc(Br)s2)NC(=S)N1c1ccccc1 | 84.9 µM (inactive) | > 100 µM (inactive) | > 100 µM (inactive) | > 100 µM (inactive) | 56.8 µM (inactive) | 34.3 µM (inactive) | > 100 µM (inactive) | 68.1 µM (inactive) | > 100 µM (inactive) | 51.5 µM (inactive) | 46.7 µM (inactive) |  | 22.5 µM (inactive) | 30.1 µM (inactive) | > 100 µM (inactive) |  | 63.2 µM (inactive) | > 100 µM (inactive) | > 100 µM (inactive) | > 100 µM (inactive) |
